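Method: 48-hour compound exposure of cells in 96-well plates, five concentrations, linear interpolation of endpoints. TGI marks complete inhibition of growth.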 Where a SMILES comes first, the peptide text is derived from it. The star is where a group is joined. Cbz = O=C(OCc1ccccc1)*
Tested on: NCI-H226 lung
Experiment: NCI anticancer screen, dose series, 48 h

First: CCOC(=O)CCC(NC(=O)OCc1ccccc1)C(=O)NC(CCC(=O)OCC)C(=O)OCC (centres undefined) (Cbz-Glu(OEt)-Glu(OEt)-OEt; configuration not given here)
Second: CCOC(=O)C(NC(=O)c1ccccc1)(N1CCN(c2cc3c(cc2F)c(=O)c(C(=O)O)cn3C2CC2)CC1)C(F)(F)F (centres undefined)
The TGI of the first is higher: over 100 µM for the first, 45.2 µM for the second.

COc1ccc(C2(CC(C)C)CCN(S(=O)(=O)c3ccc(C)cc3)C2)cc1OC (centres undefined) and CC1(C)OP(=O)(O)C=C1Sc1ccc([N+](=O)[O-])cc1[N+](=O)[O-] cannot be ordered by TGI: over 100 µM for the first, over 100 µM for the second.

O=c1cc(NNc2cccc(Cl)c2)[nH]c(=O)[nH]1 and CCOC(=O)c1sc2nc(SC)nc(Nc3ccc4c(c3)OCCO4)c2c1N cannot be ordered by TGI: over 100 µM for the first, over 100 µM for the second.

Tested on: NCI-H23 lung
Experiment: NCI anticancer screen, dose series, 48 h

First: COC(=O)C1=C(OC)[C@H]2C#C/C=C\C#C[C@@H]3Nc4c(cc(O)c5c4C(=O)c4ccccc4C5=O)[C@]24O[C@@]34[C@H]1C
Second: CCOC(=O)C(NC(=O)c1ccccc1)(N1CCN(c2cc3c(cc2F)c(=O)c(C(=O)O)cn3C2CC2)CC1)C(F)(F)F (centres undefined)
The TGI of the first is lower: under 0.01 µM for the first, 32.9 µM for the second.

Compared with CCOC(=O)CCC(NC(=O)OCc1ccccc1)C(=O)NC(CCC(=O)OCC)C(=O)OCC (centres undefined) (Cbz-Glu(OEt)-Glu(OEt)-OEt; configuration not given here), CCOC(=O)c1sc2nc(SC)nc(Nc3ccc4c(c3)OCCO4)c2c1N is lower in TGI: over 100 µM for the first, 36.5 µM for the second.

COc1ccc(C2(CC(C)C)CCN(S(=O)(=O)c3ccc(C)cc3)C2)cc1OC (centres undefined) and CC1(C)OP(=O)(O)C=C1Sc1ccc([N+](=O)[O-])cc1[N+](=O)[O-] cannot be ordered by TGI: over 100 µM for the first, over 100 µM for the second.

O=c1cc(NNc2cccc(Cl)c2)[nH]c(=O)[nH]1 was tested, and the TGI was over 100 µM.

Tested on: NCI-H460 lung
Experiment: NCI anticancer screen, dose series, 48 h

First: COC(=O)C1=C(OC)[C@H]2C#C/C=C\C#C[C@@H]3Nc4c(cc(O)c5c4C(=O)c4ccccc4C5=O)[C@]24O[C@@]34[C@H]1C
Second: CCOC(=O)C(NC(=O)c1ccccc1)(N1CCN(c2cc3c(cc2F)c(=O)c(C(=O)O)cn3C2CC2)CC1)C(F)(F)F (centres undefined)
The TGI of the first is higher: over 100 µM for the first, 44.6 µM for the second.

CCOC(=O)CCC(NC(=O)OCc1ccccc1)C(=O)NC(CCC(=O)OCC)C(=O)OCC (centres undefined) (Cbz-Glu(OEt)-Glu(OEt)-OEt; configuration not given here) and CCOC(=O)c1sc2nc(SC)nc(Nc3ccc4c(c3)OCCO4)c2c1N cannot be ordered by TGI: over 100 µM for the first, over 100 µM for the second.

COc1ccc(C2(CC(C)C)CCN(S(=O)(=O)c3ccc(C)cc3)C2)cc1OC (centres undefined) and CC1(C)OP(=O)(O)C=C1Sc1ccc([N+](=O)[O-])cc1[N+](=O)[O-] cannot be ordered by TGI: over 100 µM for the first, over 100 µM for the second.

With O=c1cc(NNc2cccc(Cl)c2)[nH]c(=O)[nH]1 the TGI was over 100 µM.

Tested on: NCI-H522 lung
Experiment: NCI anticancer screen, dose series, 48 h

Compared with COC(=O)C1=C(OC)[C@H]2C#C/C=C\C#C[C@@H]3Nc4c(cc(O)c5c4C(=O)c4ccccc4C5=O)[C@]24O[C@@]34[C@H]1C, COc1ccc(C2(CC(C)C)CCN(S(=O)(=O)c3ccc(C)cc3)C2)cc1OC (centres undefined) is higher in TGI: 0.0177 µM for the first, over 100 µM for the second.

Compared with CCOC(=O)CCC(NC(=O)OCc1ccccc1)C(=O)NC(CCC(=O)OCC)C(=O)OCC (centres undefined) (Cbz-Glu(OEt)-Glu(OEt)-OEt; configuration not given here), CCOC(=O)c1sc2nc(SC)nc(Nc3ccc4c(c3)OCCO4)c2c1N is lower in TGI: over 100 µM for the first, 23.8 µM for the second.

Going from O=c1cc(NNc2cccc(Cl)c2)[nH]c(=O)[nH]1 to CC1(C)OP(=O)(O)C=C1Sc1ccc([N+](=O)[O-])cc1[N+](=O)[O-], the TGI rises from 34.4 µM to over 100 µM.

Tested on: NCI/ADR-RES ovarian
Experiment: NCI anticancer screen, dose series, 48 h

Compared with COC(=O)C1=C(OC)[C@H]2C#C/C=C\C#C[C@@H]3Nc4c(cc(O)c5c4C(=O)c4ccccc4C5=O)[C@]24O[C@@]34[C@H]1C, COc1ccc(C2(CC(C)C)CCN(S(=O)(=O)c3ccc(C)cc3)C2)cc1OC (centres undefined) is higher in TGI: under 0.01 µM for the first, 70.5 µM for the second.

Going from CCOC(=O)CCC(NC(=O)OCc1ccccc1)C(=O)NC(CCC(=O)OCC)C(=O)OCC (centres undefined) (Cbz-Glu(OEt)-Glu(OEt)-OEt; configuration not given here) to CCOC(=O)c1sc2nc(SC)nc(Nc3ccc4c(c3)OCCO4)c2c1N, the TGI falls from over 100 µM to 44.7 µM.

O=c1cc(NNc2cccc(Cl)c2)[nH]c(=O)[nH]1 and CC1(C)OP(=O)(O)C=C1Sc1ccc([N+](=O)[O-])cc1[N+](=O)[O-] cannot be ordered by TGI: over 100 µM for the first, over 100 µM for the second.

Tested on: OVCAR-3 ovarian
Experiment: NCI anticancer screen, dose series, 48 h

First: COC(=O)C1=C(OC)[C@H]2C#C/C=C\C#C[C@@H]3Nc4c(cc(O)c5c4C(=O)c4ccccc4C5=O)[C@]24O[C@@]34[C@H]1C
Second: CCOC(=O)C(NC(=O)c1ccccc1)(N1CCN(c2cc3c(cc2F)c(=O)c(C(=O)O)cn3C2CC2)CC1)C(F)(F)F (centres undefined)
The TGI of the first is 430-fold lower: 0.113 µM for the first, 48.6 µM for the second.

Going from CCOC(=O)CCC(NC(=O)OCc1ccccc1)C(=O)NC(CCC(=O)OCC)C(=O)OCC (centres undefined) (Cbz-Glu(OEt)-Glu(OEt)-OEt; configuration not given here) to CCOC(=O)c1sc2nc(SC)nc(Nc3ccc4c(c3)OCCO4)c2c1N, the TGI falls from over 100 µM to 26.7 µM.

Compared with COc1ccc(C2(CC(C)C)CCN(S(=O)(=O)c3ccc(C)cc3)C2)cc1OC (centres undefined), CC1(C)OP(=O)(O)C=C1Sc1ccc([N+](=O)[O-])cc1[N+](=O)[O-] is higher in TGI: 55.8 µM for the first, over 100 µM for the second.

In the case of O=c1cc(NNc2cccc(Cl)c2)[nH]c(=O)[nH]1, the TGI is reported as 31.2 µM.

Tested on: OVCAR-4 ovarian
Experiment: NCI anticancer screen, dose series, 48 h

Going from COC(=O)C1=C(OC)[C@H]2C#C/C=C\C#C[C@@H]3Nc4c(cc(O)c5c4C(=O)c4ccccc4C5=O)[C@]24O[C@@]34[C@H]1C to CCOC(=O)C(NC(=O)c1ccccc1)(N1CCN(c2cc3c(cc2F)c(=O)c(C(=O)O)cn3C2CC2)CC1)C(F)(F)F (centres undefined), the TGI rises from 0.2 µM to 63.4 µM (320-fold).

Going from CCOC(=O)CCC(NC(=O)OCc1ccccc1)C(=O)NC(CCC(=O)OCC)C(=O)OCC (centres undefined) (Cbz-Glu(OEt)-Glu(OEt)-OEt; configuration not given here) to CCOC(=O)c1sc2nc(SC)nc(Nc3ccc4c(c3)OCCO4)c2c1N, the TGI falls from over 100 µM to 30.8 µM.

COc1ccc(C2(CC(C)C)CCN(S(=O)(=O)c3ccc(C)cc3)C2)cc1OC (centres undefined) and CC1(C)OP(=O)(O)C=C1Sc1ccc([N+](=O)[O-])cc1[N+](=O)[O-] cannot be ordered by TGI: over 100 µM for the first, over 100 µM for the second.

For O=c1cc(NNc2cccc(Cl)c2)[nH]c(=O)[nH]1, the TGI was over 100 µM.

Tested on: OVCAR-5 ovarian
Experiment: NCI anticancer screen, dose series, 48 h

Compared with COC(=O)C1=C(OC)[C@H]2C#C/C=C\C#C[C@@H]3Nc4c(cc(O)c5c4C(=O)c4ccccc4C5=O)[C@]24O[C@@]34[C@H]1C, CCOC(=O)C(NC(=O)c1ccccc1)(N1CCN(c2cc3c(cc2F)c(=O)c(C(=O)O)cn3C2CC2)CC1)C(F)(F)F (centres undefined) is 1300-fold higher in TGI: 0.0311 µM for the first, 40.5 µM for the second.

Compound CCOC(=O)CCC(NC(=O)OCc1ccccc1)C(=O)NC(CCC(=O)OCC)C(=O)OCC (centres undefined) (Cbz-Glu(OEt)-Glu(OEt)-OEt; configuration not given here) has a TGI of over 100 µM.
